# Values quoted from earlier work, collected in publication PMC12652113, “Fluorescent Albumin-Binding N-Propylbenzene Indolenine-Based Squaraines as Potential Candidates for Prostate Cancer Photodynamic Therapy Photosensitizers” (International Journal of Molecular Sciences, 2025).
# Settings: in dimethylformamide; reference value used for the calculation; cited from earlier work
smiles,measurement,value
"[Zn+2].c1ccc2c(c1)-c1nc-2nc2[n-]c(nc3nc([n-]c4nc(n1)-c1ccccc1-4)-c1ccccc1-3)c1ccccc21 [Zinc phthalocyanine, zinc phthalocyanine]",fluorescence quantum yield (ΦF) of the reference standard,0.17
